Test results from US20230091225A1, “Bifunctional chimeric heterocyclic compounds for targeted degradation of androgen receptors and use thereof” (HINOVA PHARMACEUTICALS INC., priority 2019, published 2023).

Tested on: LNCaP/AR cells
Assay: Inhibition of proliferation of LNCaP/AR prostate cancer cells (CCK-8)
Format: cell-based
Conditions: 144 h; proliferation of LNCap/AR cells, 6 days, CCK-8; read-out: IC50

Row | IC50 | Compound
1 | < 100 nM | Cc1ncsc1-c1ccc([C@H](C)NC(=O)[C@@H]2C[C@@H](O)CN2C(=O)[C@@H](NC(=O)COCCCCCNc2ccc3c(c2)CN([C@H]2C(C)(C)[C@H](Oc4ccc(C#N)c(Cl)c4)C2(C)C)C3=O)C(C)(C)C)cc1 [Compound 411]
2 | < 100 nM | Cc1ncsc1-c1ccc([C@H](C)NC(=O)[C@@H]2C[C@@H](O)CN2C(=O)[C@@H](NC(=O)COCC2CCN(c3ccc4c(c3)CN([C@H]3C(C)(C)[C@H](Oc5ccc(C#N)c(Cl)c5)C3(C)C)C4=O)CC2)C(C)(C)C)cc1 [Compound 409]

Same assay, conditions: LNCaP/AR, 144 h

Row | Compound | IC50
3 | Cc1ncsc1-c1ccc([C@H](C)NC(=O)[C@@H]2C[C@@H](O)CN2C(=O)[C@@H](NC(=O)CCN2CC(CC#Cc3ccc4c(c3)CN([C@H]3C(C)(C)[C@H](Oc5ccc(C#N)c(Cl)c5)C3(C)C)C4=O)C2)C(C)(C)C)cc1 [Compound 44] | 100 to 500 nM

Same assay, conditions: proliferation of LNCap/AR cells, 6 days, CCK-8; read-out: IC50

Row | Compound | IC50
4 | (2S,4R)-1-((S)-2-(3-((4-(2-((1r,3r)-3-(3-chloro-4-cyanophenoxy)-2,2,4,4-tetramethylcyclobutyl)-1-oxoisoindolin-5-yl)3-butynoxy)propylamino)-3,3-dimethylbutanol)-4-hydroxy-N-(S)-1-(4-(4-methylthiazole)phenyl)ethyl) formamide [Compound 34] | < 100 nM
5 | Cc1ncsc1-c1ccc([C@H](C)NC(=O)[C@@H]2C[C@@H](O)CN2C(=O)[C@@H](NC(=O)C2(C(=O)NCCCC#Cc3ccc4c(c3)CN(C3C(C)(C)C(Oc5ccc(C#N)c(Cl)c5)C3(C)C)C4=O)CC2)C(C)(C)C)cc1 (stereo partly shown) [Compound 25] | < 100 nM
6 | CN1C(=O)CCC(N2Cc3cc(F)c(N4CCN(CC5CCN(c6ccc7c(n6)CN(C6CCC(Oc8ccc(C#N)c(Cl)c8)CC6)C7=O)CC5)CC4)cc3C2=O)C1=O (stereo not shown) [Compound 307, 2-chloro-4-((1r,4r)-4-(2-(4-((4-(6-fluoro-2-(1-methyl-2,6-dioxopiperidin-3-yl)-3-oxoisoindolin-5-yl)piperazin-1-yl)methyl)piperidin-1-yl)-5-oxo-5H-pyrrolo[3,4-b]pyridin-6(7H)-yl)cyclohexyl)oxy)benzonitrile] | 500 to 1000 nM

Target: T1, androgen receptor (AR) (Homo sapiens, UniProt P10275)
T1 sequence (P10275 1-920): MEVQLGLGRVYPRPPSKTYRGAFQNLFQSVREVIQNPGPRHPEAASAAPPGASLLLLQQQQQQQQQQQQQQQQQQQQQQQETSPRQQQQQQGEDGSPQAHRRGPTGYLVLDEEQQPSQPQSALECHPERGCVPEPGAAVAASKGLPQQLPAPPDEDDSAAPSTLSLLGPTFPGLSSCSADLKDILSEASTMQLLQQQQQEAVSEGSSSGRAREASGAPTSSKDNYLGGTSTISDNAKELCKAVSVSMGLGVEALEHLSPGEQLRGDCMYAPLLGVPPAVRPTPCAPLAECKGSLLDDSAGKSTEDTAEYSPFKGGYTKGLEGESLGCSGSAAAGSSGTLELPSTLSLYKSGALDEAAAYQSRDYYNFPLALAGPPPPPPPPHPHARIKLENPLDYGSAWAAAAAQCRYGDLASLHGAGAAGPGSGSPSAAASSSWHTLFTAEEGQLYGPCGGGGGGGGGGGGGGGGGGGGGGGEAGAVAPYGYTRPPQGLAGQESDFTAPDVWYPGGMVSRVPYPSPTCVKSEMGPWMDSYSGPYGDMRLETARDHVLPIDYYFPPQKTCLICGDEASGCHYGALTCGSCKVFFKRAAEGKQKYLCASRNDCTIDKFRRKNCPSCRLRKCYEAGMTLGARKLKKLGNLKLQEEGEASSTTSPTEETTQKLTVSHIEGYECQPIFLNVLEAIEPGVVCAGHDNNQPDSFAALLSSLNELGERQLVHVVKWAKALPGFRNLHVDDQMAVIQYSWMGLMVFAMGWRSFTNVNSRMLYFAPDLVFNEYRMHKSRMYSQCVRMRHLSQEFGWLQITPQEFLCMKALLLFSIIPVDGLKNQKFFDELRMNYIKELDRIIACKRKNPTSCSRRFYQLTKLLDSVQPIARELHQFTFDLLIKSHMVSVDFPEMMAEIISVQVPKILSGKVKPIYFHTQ
Assay: Degradation of androgen receptor (AR) protein in VCaP cells by ELISA
Format: cell-based
Conditions: AR degradation, VCaP cells, 16 h, ELISA, Table 3-2; read-out: DC50

Row | Compound | DC50
7 | N#Cc1ccc(O[C@H]2CC[C@H](NC(=O)c3cnc(N4CCC(CN5CCC6(CC5)CN(c5cc7c(cc5F)C(=O)N(C5CCC(=O)NC5=O)C7=O)C6)CC4)nn3)CC2)cc1Cl (stereo partly shown) [Compound 158] | < 10 nM

Same assay, conditions: VCaP

Row | Compound | Dmax
8 | N#Cc1ccc(O[C@H]2CC[C@H](NC(=O)c3cnc(N4CCC(CN5CCC6(CC5)CN(c5cc7c(cc5F)C(=O)N(C5CCC(=O)NC5=O)C7=O)C6)CC4)nn3)CC2)cc1Cl (stereo partly shown) [Compound 158] | > 80%

Target: T1, androgen receptor (AR)
Assay: Degradation of androgen receptor (AR) protein in VCaP cells by Western blot
Format: cell-based
Conditions: percentage of degraded AR at 100 nM, VCaP cells, 16 h
In short: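 VCaP cells (5×10^5/well) were seeded overnight, then treated in duplicate for 16 h with compound in 0.1% DMSO final. Lysates (30 μg protein) were immunoblotted for AR (D6F11) with β-actin as loading control, detected by ECL chemiluminescence.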

Row | Compound | inhibition at 0.1 µM | % degradation
9 | N#Cc1ccc(O[C@H]2CC[C@H](NC(=O)c3cnc(N4CCC(CN5CCC6(CC5)CN(c5cc7c(cc5F)C(=O)N(C5CCC(=O)NC5=O)C7=O)C6)CC4)nn3)CC2)cc1Cl (stereo partly shown) [Compound 158] | > 80% | 
10 | N#Cc1ccc(O[C@H]2CC[C@H](NC(=O)c3ccc(N4CCC(CN5CC6CN(c7ccc8c(c7)C(=O)N(C7CCC(=O)NC7=O)C8=O)CC6C5)CC4)nn3)CC2)cc1Cl (stereo partly shown) [Compound 252, N-((1r,4r)-4-(3-chloro-4-cyanophenoxy)cyclohexyl)-6-(4-((5-(2-(2,6-dioxopiperidin-3-yl)-1,3-dioxoisoindolin-5-yl)Hexahydropyrrolo[3,4-c]pyrrol-2(11H)-yl)methyl)piperidin-1-yl)pyridazine-3-formamide] | 25 to 49% | 
11 | N#Cc1ccc(O[C@H]2CC[C@H](NC(=O)c3cnc(N4CCC(CN5CCC6(CCN(c7cc8c(cc7F)C(=O)N(C7CCC(=O)NC7=O)C8=O)C6)C5)CC4)cn3)CC2)cc1Cl (stereo partly shown) [Compound 141] | > 80% | 
12 | N#Cc1ccc(Oc2ccc(NC(=O)c3ccc(N4CCC(CN5CCN(c6cc7c(cc6F)C(=O)N(C6CCC(=O)NC6=O)C7=O)CC5)CC4)nn3)cc2)cc1Cl (stereo not shown) [Compound 227, N-(4-(3-chloro-4-cyanophenoxy)phenyl)-6-(4-((4-(2-(2,6-dioxopiperidin-3-yl)-6-fluoro-1,3-dioxoisoindolin-5-yl)piperazin-1-yl)methyl)piperidin-1-yl)pyridazine-3-formamide] | 25 to 49% | 
13 | N#Cc1ccc(OC2CCC(NC(=O)c3ccc(N4CCC(CN5CCC6(CC5)CN(c5ccc7c(c5)C(=O)N(C5CCC(=O)NC5=O)C7=O)C6)CC4)nn3)CC2)cc1Cl (stereo not shown) [Compound 230, N-((1r,4r)-4-(3-chloro-4-cyanophenoxy)cyclohexyl)-6-(4-((2-(2-(2,6-dioxopiperidin-3-yl)-1,3-dioxoisoindolin-5-yl)-2,7-diazaspiro[3.5]nonan-7-yl)methyl)piperidin-1-yl)pyridazine-3-carboxamide] |  | A (>80%)
14 | N#Cc1ccc(O[C@H]2CC[C@H](NC(=O)c3cnc(N4CCC(CN5CCC(Nc6cc7c(cc6F)C(=O)N(C6CCC(=O)NC6=O)C7=O)CC5)CC4)cn3)CC2)cc1Cl (stereo partly shown) [Compound 145] | > 80% | 

Now from value to compound, other results behind:

Row | inhibition at 0.1 µM | Compound | % degradation
15 | 50 to 79% | N#Cc1ccc(O[C@H]2CC[C@H](NC(=O)c3ccc(N4CCC(N5CC6CN(c7ccc8c(c7)C(=O)N(C7CCC(=O)NC7=O)C8=O)CC6C5)CC4)nn3)CC2)cc1Cl (stereo partly shown) [Compound 62, N-((1r,4r)-4-(3-chloro-4-cyanophenoxy)cyclohexyl)-6-(4-(5-(2-(2,6-dioxopiperidin-3-yl)-1,3-dioxoisoindolin-5-yl)hexahydropyrrolo[3,4-c]pyrrol-2(1H)-yl)piperidin-1-yl)pyridazine-3-carboxamide] | 
16 | 25 to 49% | N#Cc1ccc(O[C@H]2CC[C@H](NC(=O)c3ccc(N4CCC(CN5CCCN(c6ccc7c(c6)C(=O)N(C6CCC(=O)NC6=O)C7=O)CC5)CC4)cc3)CC2)cc1Cl (stereo partly drawn) [Compound 58, N-((1R,4R)-4-(3-chloro-4-cyanophenoxy)cyclohexyl)-4-(4-((4-(2-(2,6-dioxopiperidin-3-yl)-1,3-dioxoisoindolin-5-yl)-1,4-diazepan-1-yl)methyl)piperidin-1-yl)benzamide] | 
17 | < 25% | N#Cc1ccc(O[C@H]2CC[C@H](NC(=O)c3ccc(N4CCN([C@@H]5C[C@@H]6CN(c7ccc8c(c7)C(=O)N(C7CCC(=O)NC7=O)C8=O)C[C@@H]6C5)CC4)nn3)CC2)cc1Cl (stereo partly drawn) [Compound 298, N-((1r,4r)-4-(3-chloro-4-cyanophenoxy)cyclohexyl)-6-(4-((3aR,5R,6aS)-2-(2-(2,6-dioxopiperidin-3-yl)-1,3-dioxoisoindolin-5-yl)octahydrocyclopenta[c]pyrrol-5-yl)piperazin-1-yl)pyridazine-3-formamide] | 
18 | < 25% | N#Cc1ccc(O[C@H]2CC[C@H](NC(=O)c3cnc(N4CCN([C@@H]5C[C@@H]6CN(c7cc8c(cc7F)C(=O)N(C7CCC(=O)NC7=O)C8=O)C[C@@H]6C5)CC4)nc3)CC2)cc1Cl (stereo partly drawn) [Compound 299, N-((1r,4r)-4-(3-chloro-4-cyanophenoxy)cyclohexyl)-2-(4-((3aR,5R,6aS)-2-(2-(2,6-dioxopiperidin-3-yl)-6-fluoro-1,3-dioxoisoindolin-5-yl)octahydrocyclopenta[c]pyrrol-5-yl)piperazin-1-yl)pyrimidine-5-formamide] | 
19 | > 80% | N#Cc1ccc(O[C@H]2CC[C@H](NC(=O)c3cnc(N4CCC5(CCN(CC6CCN(c7cc8c(cc7F)C(=O)N(C7CCC(=O)NC7=O)C8=O)CC6)C5)C4)cn3)CC2)cc1Cl (stereo partly shown) [Compound 163] | 
20 | > 80% | N#Cc1ccc(O[C@H]2CC[C@H](NC(=O)c3cnc(N4CCC(N5CC6(CCN(c7cc8c(cc7F)C(=O)N(C7CCC(=O)NC7=O)C8=O)CC6)C5)CC4)cn3)CC2)cc1Cl (stereo partly shown) [Compound 228, N-((1r,4r)-4-(3-chloro-4-cyanophenoxy)cyclohexyl)-5-(4-(7-(2-(2,6-dioxopiperidin-3-yl)-6-fluoro-1,3-dioxoisoindolin-5-yl)-2,7-diazaspiro[3.5]nonan-2-yl)piperidin-1-yl)pyrazine-2-carboxamide] | 
21 | > 80% | N#Cc1ccc(O[C@H]2CC[C@H](NC(=O)c3ccc(N4CCC(CN5CC6(CCN(c7cc8c(cc7F)C(=O)N(C7CCC(=O)NC7=O)C8=O)C6)C5)CC4)nn3)CC2)cc1Cl (stereo partly shown) [Compound 180, N-((1r,4r)-4-(3-chloro-4-cyanophenoxy)cyclohexyl)-6-(4-((6-(2-(2,6-dioxopiperidin-3-yl)-6-fluoro-1,3-dioxoisoindolin-5-yl)-2,6-diazaspiro[3.4]octan-2-yl)methyl)piperidin-1-yl)pyridazine-3-formamide] | 
22 | 50 to 79% | N#Cc1ccc(O[C@H]2CC[C@H](NC(=O)c3cnc(N4CCC(CN5CC6CN(c7cc8c(cc7F)C(=O)N(C7CCC(=O)NC7=O)C8=O)CC6C5)CC4)cn3)CC2)cc1Cl (stereo partly shown) [Compound 255, N-((1r,4r)-4-(3-chloro-4-cyanophenoxy)cyclohexyl)-5-(4-((5-(2-(2,6-dioxopiperidin-3-yl)-6-fluoro-1,3-dioxoisoindolin-5-yl)Hexahydropyrrolo[3,4-c]pyrrol-2(1H)-yl)methyl)piperidin-1-yl)pyrazine-2-carboxamide] | 
